By logD is commonly meant the decadic logarithm of the distribution of all forms, ionised or not, between an organic phase and buffer at a given pH.

For the first series the following is noted: pH 2.0.
For `Cc1ccccc1O[C@@H]1C(=O)N(Cc2ccc3c(c2)OCO3)[C@H]1c1ccc2c(c1)OCO2`, the logD came to 4.37.
`CC[C@@H](NS(=O)(=O)c1ccc(C)cc1)C(=O)Oc1ccc2c3c(c(=O)oc2c1)CCCC3` came in with a logD of 3.08.
Take `CC(C)N(Cc1nnc(-c2ccc(Cl)cc2)o1)C(=O)[C@@H]1COc2ccccc2O1`: the logD stood at 4.09.
`CCN(CC)S(=O)(=O)c1ccc(C(=O)N2CCNC(=O)[C@H]2CC(=O)OC)cc1` showed a logD of 1.14.

The same series, now with this note: pH 5.0.
`O=C(c1cccc(COCC(F)(F)C(F)F)c1)N1CC[C@@H](C(F)(F)F)n2nccc21` showed a logD of 4.27.
The compound `CC[C@H](C)NC(=O)NC(C(F)(F)F)C(F)(F)F` showed a logD of 2.84.
The same measure, in the same setting: to `Cc1cc(Cl)ccc1O[C@@H](C)C(=O)NC1CCCCCC1` belongs 5.45; to `COc1cc2c(cc1OC)[C@@H](COc1ccc(F)cc1)N(C(=O)/C=C/c1ccccc1)CC2`, 5.45; to `COc1cc(/C=C/C(=O)N[C@H]2CCCc3ccccc32)cc(OC)c1OC`, 4.27.
`COc1ccccc1[C@@H]1CC(=O)Nc2cc(C)c(C)cc21` gave a logD of 4.17.
The same measure, in the same setting: to `CCN1C(=O)/C(=C2\SC(=S)N(Cc3ccc(OC)cc3)C2=O)c2cc(Br)ccc21` belongs 6.96; to `CCN(CC)S(=O)(=O)N1CCC[C@H](C(=O)NC2CCCCC2)C1`, 3.58; to `O=C(Nc1ccc(C(F)(F)F)cc1)[C@H]1CCc2ccccc2O1`, 4.5.
On the same count and under the same terms, to `COC(=O)c1cccc(NC(=O)c2ccc(C)cc2)c1` belongs 3.72; to `COc1ccc([C@@H]2C3=C(C[C@H](c4ccco4)CC3=O)Nc3ccccc3N2C(=O)C(F)(F)F)cc1`, 4.62.
On the same count and under the same terms, to `O=C(/C=C/c1ccc2c(c1)OCO2)NCCCCNC(=O)/C=C/c1ccc2c(c1)OCO2` belongs 4.59; to `CCN(C(=O)COC(=O)/C(=C/c1ccc(Cl)cc1)c1ccc(F)cc1)[C@@H]1CCS(=O)(=O)C1`, 4.95.
The compound `O=C(NCc1ccc(F)cc1)c1nn2c(c1Br)N[C@H](c1cccs1)C[C@H]2C(F)(F)F` had a logD of 5.54.
The compound `FC(F)Oc1ccc(NC(=S)NC[C@@H]2CCCO2)cc1Cl` yielded a logD of 3.74.
`C#CCOc1ccc(C2C3=C(CC(C)(C)CC3=O)OC3=C2C(=O)CC(C)(C)C3)cc1OCC` had a logD of 4.93.
For `COC(=O)c1ccc(N(C(=O)C(F)(F)F)[C@@H]2C=CS(=O)(=O)C2)cc1`, the logD worked out at 2.05.
Still for that read-out and setting: to `CCOC(=O)c1c(NC=C2C(=O)N(C)C(=O)N(C)C2=O)sc2c1CC[C@@H](CC)C2` belongs 5.76.
Still for that read-out and setting: to `Cc1cc(Cl)ccc1NC(=S)NCCc1c[nH]c2ccccc12` belongs 4.34; to `COCCCNC(=S)N1[C@H](C)CCC[C@H]1C`, 2.8; to `Cc1ccc(C)c(NC(=O)[C@H]2CC3c4ccccc4C2c2ccccc23)c1`, 5.26.
`COc1cc2c(cc1OC)[C@@]1(C)N(CC2)C(=O)OC12CCCCC2` displayed a logD of 3.47.
In turn, `CCc1ccccc1NC(=O)[C@]12CC[C@](C)(C(=O)O1)C2(C)C` gave a logD of 3.31.
In turn, `CC(C)[C@H]1O[C@H]2CCCC[C@H]2C2=CCCC[C@H]21` displayed a logD of 5.87.
`COc1ccccc1/C=N/n1c(C)cc(C)c(C#N)c1=O` gave a logD of 3.08.
As for `CS(=O)(=O)N(CC(=O)Nc1ccccc1C(=O)NCc1ccco1)c1ccc(Cl)cc1`, the logD is 4.32.
On to `O=C(/C=C/Nc1cccc(C(F)(F)F)c1)c1ccc(Br)cc1`, for which the logD was 5.65.
Consider `Cc1ccc(CNC(=O)C2CCN(S(=O)(=O)c3ccc4c(c3)OCCCO4)CC2)cc1`, for which the logD was 4.01.
Turning to `C[C@@H]1C=CC[C@@H]2C(=O)N(c3cccc(C(=O)OCC(=O)c4ccc(Br)cc4)c3)C(=O)[C@H]12`, the logD turned out to be 5.29.
The same measure, in the same setting: to `COc1cc([C@H]2NC(=O)NC(C)=C2C(=O)OC(C)C)ccc1OC(F)F` belongs 3.75; to `CCCC1=C(C(=O)OCC)[C@H](c2ccc3c(c2)OCO3)NC(=O)N1`, 3.59.
Regarding `CCOCCOC(=O)c1ccc(NC(=O)COc2ccc(C)cc2Br)cc1`, the logD is 5.36.
Compound `CCCCN1C(=O)N(C)[C@@H]2[C@H]1N(C)C(=O)N2CCCC` yielded a logD of 2.69.
On the same count and under the same terms, to `COc1ccc([C@H]2[C@H](C(=O)Nc3ccc(F)cc3F)c3cc(OC)c(OC)cc3C(=O)N2C)cc1OC` belongs 3.66; to `Cc1cc(C)c([C@H]2[C@@H]3CCCC=C3C(C#N)=C(N)C2(C#N)C#N)c(C)c1`, 5.48.
As for `C[C@H](NC(=O)C1CC1)c1ccccc1`, the logD is 1.85.
As to `CC1(C)[C@H](C(=O)N2CCOCC2)CC[C@]1(C)C(=O)N1CCOCC1`, the logD was 2.46.
The compound `Cc1cccc(NC(=O)Cc2ccc(Br)cc2)c1C` registered a logD of 4.05.
The compound `Cc1cc(C(=O)CN2C(=O)[C@@H]3CC=CC[C@H]3C2=O)c(C)n1Cc1ccc2c(c1)OCO2` gave a logD of 4.38.
Still for that read-out and setting: the value for `CN1C(=CC(=O)COC(=O)C(c2ccccc2)c2ccccc2)C(C)(C)c2ccccc21` was 6.27; that for `COC(=O)c1ccc([C@@H]2C3=C(C[C@H](c4ccco4)CC3=O)Nc3ccccc3N2C(=O)C2CC2)cc1` was 4.44; that for `CC(C)C(=O)N[C@H](Oc1ccc(C=O)cc1)C(Cl)(Cl)Cl` was 3.68.
Compound `O=C1[C@@H](c2cccc(Br)c2)N(CCC2=CCCCC2)C(=O)CN1C1CCCCC1` registered a log distribution coefficient (logD) of 5.6.
Same read-out and setting: to `Cc1c(N[C@@H](NC(=O)c2cccc([N+](=O)[O-])c2)C(Cl)(Cl)Cl)c(=O)n(-c2ccccc2)n1C` belongs 3.99; to `C[C@@]12CC[C@H]3C[C@]1(C#N)N(C(=O)c1cccc([N+](=O)[O-])c1)C[C@]32C`, 3.25; to `O=C1/C(=C/c2c(Sc3ccccc3)nc3ccccn3c2=O)SC(=S)N1C[C@H]1CCCO1`, 5.87.
`COc1ccc2c(c1)O[C@](O)(C(F)(F)F)CC2=O`: the logD stood at 2.79.
Regarding `CC(C)CN1C(=O)/C(=C/[C@@H]2CC=CCC2)SC1=S`, the logD came out at 6.66.
In the case of `CC(=O)c1ccc(NC(=O)CNC(=O)CNC(=O)[C@@H]2O[C@@H]3OC(C)(C)O[C@@H]3[C@H]3OC(C)(C)O[C@H]32)cc1`, the logD came to 3.39.
As to `CCOC(=O)C1=C(C)NC(=O)C[C@@H]1c1cc(OC)c(OC)cc1Br`, the logD is 3.93.

Staying with this series, now noted: pH 6.5.
The compound `CC(C)(C)S(=O)(=O)/C(C#N)=C/Nc1ccc(OC(F)(F)F)cc1` came in with a logD of 4.28.
Same read-out and setting: the value for `COC[C@H](C)NC(=O)CCl` was 0.61; that for `Cc1ccc2[nH]c3nc(N/N=C/C=C/c4ccco4)nnc3c2c1` was 2.18; that for `Cc1ccc(NC(=O)COC(=O)/C(=C/c2cccs2)c2cccs2)c(C)c1` was 3.83.
The compound `COC(=O)c1ccc(C(=O)OC)c(NC(=O)CSc2ncnc3sc4c(c23)CC[C@@H](C)C4)c1` had a logD of 5.79.
With `C=CCOc1cccc([C@@H]2c3c(oc4ccccc4c3=O)C(=O)N2c2nnc(C)s2)c1`, the logD came to 4.52.
On the same count and under the same terms, to `CC(C)(C)C1(C)O[C@H](C(N)=O)[C@H](C(N)=O)O1` (some centres not stated) belongs 1.6; to `CCN(C(=O)CN1C(=O)[C@H]2CCCC[C@H]2C1=O)c1nnc(-c2ccc(Cl)cc2)s1`, 4.91; to `COc1ccc(N2C(=S)N=C(N[C@@H]([C@@H](Oc3ccc(Cl)cc3)n3cncn3)C(C)(C)C)C2(C)C)cc1`, 5.56.
With `N#CC1(C#N)[C@H](c2ccc(Br)s2)[C@@H](C(=O)c2ccccc2)N2c3ccccc3C=C[C@@H]21`, the logD amounted to 5.05.
With `Cc1ccc(N2CC(=O)N(/N=C/c3cn(-c4ccccc4)nc3-c3ccc(Cl)cc3)CC2=O)cc1`, the logD came out at 6.14.

Still in this series, the particulars now being: pH 7.3.
`CCOc1ccc([C@@H]2Oc3nc(SC)nnc3-c3ccccc3N2C(=O)CC)cc1OC`: the logD was found to be 3.95.
On to `O=C(c1cccc(S(=O)(=O)N2CCOCC2)c1)N1CCN(c2cccc(Cl)c2)CC1`, for which the logD is 4.34.

Staying with this series, now noted: pH 8.0.
For the compound `Cc1sc2ncn(CC(=O)N[C@@H]3CCC[C@@H](C)[C@H]3C)c(=O)c2c1C`, the logD was found to be 4.34.
As to `CCCc1[nH]nc2c1[C@@]1(C(=O)N(CC(N)=O)c3ccccc31)C(C(=O)OC)=C(N)O2`, the logD is 4.48.
For `COC(=O)CSc1nc(NCC(C)C)nc(N2CCOCC2)n1`, the logD stood at 3.75.

Staying with this series, now noted: pH 9.0.
`CC(=O)Nc1ccc([C@@H]2C(C#N)=C(N)Oc3[nH]nc(-c4cc(C)sc4C)c32)cc1`: the logD turned out to be 4.26.

The series is the same for the next values; noted with them: pH 10.0.
Compound `Cc1cc(C(F)(F)F)nn1[C@@H](C)c1nnc(Nc2ccn(Cc3ccccc3)n2)s1` returned a logD of 5.34.
As for `Cc1nn(C)cc1-c1cc(C(F)(F)F)n2nc(C(=O)N3C[C@@H](C)O[C@@H](C)C3)cc2n1`, the logD amounted to 4.11.
The compound `COc1ccccc1[C@H]1CC(=O)C2=C(C1)NC(C)=C(C(=O)OC1CCCC1)[C@H]2c1ccc(OC(C)=O)cc1` returned a logD of 5.81.
On the same count and under the same terms, to `C[C@H]1CN(C(=O)c2cc(-c3ccc4c(c3)OCO4)nc3ccccc23)C[C@H](C)O1` belongs 4.19; to `CCC[C@@H](C)NC(=O)COc1ncnc2sc3c(c12)CC[C@@H](C)C3`, 4.55; to `CCO/C(O)=C/c1nc2nonc2nc1O`, 1.61.
Compound `Clc1cccc(Cl)c1Cn1ccc(Nc2nnc(Cc3ccc(-n4cnnn4)cc3)s2)n1` showed a logD of 4.99.
On the same count and under the same terms, to `CCCC[C@@]1(c2ccccc2)NC(=S)N(c2ccc(C)cc2)N1` belongs 5.1; to `COc1ccc([C@@H]2C(C(=O)OCCOC(C)C)=C(C)NC3=C2C(=O)C[C@H](c2cccs2)C3)cc1OC`, 4.45.

Staying with this series, now noted: pH 10.5.
For the compound `C/C(=C\c1ccco1)[C@H]1C(C#N)=C(N)Oc2n[nH]c(-c3ccccc3)c21`, the logD amounted to 4.82.
Compound `Nc1nc(O/N=C/c2ccc([N+](=O)[O-])cc2)nc(N2CCOCC2)n1` showed a pH-dependent lipophilicity (logD) of 3.18.
With `CCOC(=O)C1CCN(C(=O)c2ccc(Cl)c(/N=C3/N[C@@H]4CS(=O)(=O)C[C@@H]4S3)c2)CC1`, the logD was determined as 2.96.
`O=[N+]([O-])c1ccc(-c2nc3nc4ccccc4nc3n2C[C@@H]2CCCO2)cc1` displayed a logD of 3.75.
On to `C[C@H](NC(=O)CSc1ncnc2c1cnn2-c1ccccc1)c1ccccc1`, for which the logD was 4.73.
With `Cc1cc2c(c(=O)o1)[C@@H](c1cccc(F)c1F)C(C#N)=C(N)O2`, the logD stood at 3.1.
`COc1ccc([C@H]2C(C#N)=C(N)N(c3ccccc3C(F)(F)F)C3=C2C(=O)CCC3)cc1CSc1ccccn1` yielded a logD of 5.45.

These data come from the SangsterLogP compilation.
